Data reported in patent publication US5420128A, “Pyrimidine derivatives, method of manufacturing the same, and androgen inhibitor” (Otsuka Pharmaceutical Co., Ltd., priority 1990, dated 1995).

Tests used:
[1] = target: T1, rat prostate androgen receptor (Rattus norvegicus, UniProt P15207); assay: inhibitory activity on binding of ^3 H-5α-DHT on rat prostate androgen receptor; settings: ^3 H-5α-DHT 1 nM, rat ventral prostate cytosol, about 20 hours at 0° C.; read-out: Inhibitory activity on 5α-DHT specific binding [IC50 (M)]
T1 construct: the supernatant was obtained as cytoplasm fraction; from tissue; host or cells: cytosol (105000×g supernatant) of rat ventral prostate, 24 hours after castration
T1 sequence (P15207 1-902): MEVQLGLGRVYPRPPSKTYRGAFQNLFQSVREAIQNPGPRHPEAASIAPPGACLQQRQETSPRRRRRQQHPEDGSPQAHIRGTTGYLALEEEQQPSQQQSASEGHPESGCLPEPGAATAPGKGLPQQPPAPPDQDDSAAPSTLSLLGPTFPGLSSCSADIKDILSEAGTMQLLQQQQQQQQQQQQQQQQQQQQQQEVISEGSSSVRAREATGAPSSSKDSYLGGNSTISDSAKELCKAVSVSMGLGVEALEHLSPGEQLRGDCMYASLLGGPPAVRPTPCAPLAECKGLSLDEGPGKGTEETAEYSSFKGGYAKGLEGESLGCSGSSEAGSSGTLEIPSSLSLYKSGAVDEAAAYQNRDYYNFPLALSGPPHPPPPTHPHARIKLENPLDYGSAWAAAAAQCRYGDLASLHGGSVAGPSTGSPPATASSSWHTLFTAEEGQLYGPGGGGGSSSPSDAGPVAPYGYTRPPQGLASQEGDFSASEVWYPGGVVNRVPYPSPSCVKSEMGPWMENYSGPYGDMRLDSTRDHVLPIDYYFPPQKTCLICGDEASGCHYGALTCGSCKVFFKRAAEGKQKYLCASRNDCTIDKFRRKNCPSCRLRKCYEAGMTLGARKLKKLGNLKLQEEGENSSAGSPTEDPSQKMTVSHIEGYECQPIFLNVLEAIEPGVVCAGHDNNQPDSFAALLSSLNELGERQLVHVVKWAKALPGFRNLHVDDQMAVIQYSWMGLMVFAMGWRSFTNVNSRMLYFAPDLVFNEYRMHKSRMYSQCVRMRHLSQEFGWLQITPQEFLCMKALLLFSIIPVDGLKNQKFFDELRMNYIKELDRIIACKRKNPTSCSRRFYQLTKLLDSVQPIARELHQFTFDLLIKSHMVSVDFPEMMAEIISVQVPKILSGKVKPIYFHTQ
Procedure: The compounds obtained in Examples were evaluated in the following pharmacological studies A and B. The pharmacological study A was conducted in conformity with J.B.C. 256 (15) 7998-8005, 1981.
A. Measurement of inhibitory activity on binding of ^3 H-5α-[…] (^3 H-5α,-DHT) on rat prostate androgen receptor
(1) Preparation of cytosol from rat prostate
The rat was sacrificed 24 hours after castration, and the ventral lobe of prostate was removed, and was gently homogenized, on ice water bath, by using a Potter homogenizer in three-fold amount of 0.25M sucrose-TME buffer solution (50 mM tris-HCl (pH 7.4), 0.5 mM mercaptoethanol, and 0.1 mM EDTA-2 Na). The homogenate was filtrated through double gauze, and ultracentrifuged at 105000×g for 60 minutes, and the supernatant was used as androgen receptor.
(2) Measurement of ^3 H-5α-DHT specific binding on prostate cytoplasmic androgen receptor
To the cytosol obtained in (1), ^3 H-5α-DHT (47.8 Ci/mmol) was added, so that a final concentration is adjusted to 1 nM, and 0.25 M sucrose-TME buffer was added to adjust the final volume to 0.5 ml, and the reaction mixture was incubated for about 20 hours at 0° C. An ammonium sulfate solution dissolved in 0.25 M sucrose-TME buffer was mixed to be 35% saturation, and after standing for 90 minutes at 0° C., the mixture was centrifuged at 10000×g for 10 minutes at 4° C., and the precipitate was obtained.
This precipitate was suspended again in 0.8 ml of the above buffer solution, and furthermore in order to remove the free type ^3 H-5α-DHT, 0.2 ml of dextran-carbon powder suspension (4% activated carbon, 0.1% dextran T-70, and 0.1% gelatin dissolved in the above buffer solution) was added and mixed, and the mixture was let stand for 10 minutes at 0° C. At 4° C., in succession, the mixture was centrifuged at 3000×g for 10 minutes, and 0.5 ml of the supernatant was transferred into a vial, and 10 ml of aquasol-2 was added, and radioactivity was measured, and the total binding amount of ^3 H-5α-DHT on the prostate cytoplasma androgen receptor was determined. The nonspecific binding amount was similarly determined by adding a non-radioactive ligand (5α-DHT) to the reaction solution to a final concentration of 1 μM. The difference between the total binding amount and nonspecific binding amount was determined as the specific binding amount on the androgen receptor.
(3) Inhibitory activity of sample compounds on ^3 H-5α-DHT specific binding
The compounds obtained in Examples were incubated with ^3 H-5α-DHT at several concentrations same as in (2), and the specific binding amount of ^3 H-5α-DHT on the androgen receptor was determined. Comparing the obtained value with the value of (2), the IC50 value of the test compounds on ^3 H-5α-DHT specific binding was determined. The following compounds were used as the positive controls.

[2] = target: T1, rat prostate androgen receptor; assay: inhibitory activity on binding of ^3 H-mibolerone on rat prostate androgen receptor; settings: ^3 H-mibolerone 1 nM, triamcinolone acetonide 5 μM, rat ventral prostate cytosol, 20 hours at 0° C.; read-out: Inhibitory activity on mibolerone specific binding [IC50 (M)]
Procedure: B. Measurement of inhibitory activity on binding of ^3 H-mibolerone on rat prostate androgen receptor
The rat was sacrificed 24 hours after castration, and the ventral lobe of prostate was removed, and was gently homogenized, in ice-cooling water bath, at first by using Polytron and then using Potter type homogenizer, in three-fold amount of buffer solution A (1.5 mM EDTA, 2 mM dithiothreitol, 10 mM molybdate sodium, 10 % by volume of glycerol, 10 mM NaF, 25 mM phosphate sodium, pH 7.2). The obtained homogenate was filtrated through double gauze, and centrifuged at 105000×g for 60 minutes at 4° C., and the supernatant was obtained as cytoplasm fraction.
(2) Measurement of specific binding of ^3 H-mibolerone on prostate cytoplasm androgen receptor
To the cytoplasm fraction obtained in (1), ^3 H-mibolerone (87.0 Ci/mmol) was added, so that a final concentration is adjusted to 1 nM, and at the same time, in order to inhibit binding of ^3 H-mibolerone to progestin receptor, triamsinolone acetonide was added to a final concentration of 5 μM, and the final volume was adjusted to 0.4 ml with buffer solution A, and the reaction mixture was incubated for 20 hours at 0° C. After incubation, 0.5 ml of 60% hydroxylapatite slurry (washed and equilibrate with a buffer solution B: 10 mM NaH2 P04, 20 mM tris-hydrochloric acid, pH 7.2) was added, and incubated for 10 minutes at 0° C., the solution was transferred onto a glass fiber filter, and washed five times with 5 ml portions of buffer solution B containing 0.1% (weight/volume) of Triton X-100, to remove free ^3 H-mibolerone. This glass fiber was transferred into vial, and 10 ml of aquasol-2 was added, and the radioactivity was measured, and the total binding amount of ^3 H-mibolerone on prostate cytoplasm androgen receptor was determined.
The nonspecific binding amount was determined similarly by adding an unlabeled 5α-DHT in the reaction solution to a final concentration of 1 μM. The difference between the total binding amount and nonspecific binding amount was determined as the specific binding amount on the androgen receptor.
(3) Inhibitory activity of sample compounds on ^3 H-mibolerone specific binding
The compounds obtained in the experiments were added simultaneously with ^3 H-mibolerone at different concentrations to incubate same as in (2), and the specific binding amount of 3H-mibolerone on androgen receptor was determined. Comparing this value with the value obtained in (2), the IC50 value of inhibitory activity of the compounds on ^3 H-mibolerone specific binding was determined.

| IC50 [1] [M] | IC50 [2] [M] | Compound |
| --- | --- | --- |
| 1.3e-07 |  | Cc1cccc(Sc2ccc(-c3cnn4c(O)ncnc34)cc2C)c1 [Example 83, 4-Hydroxy-8-[3-methyl-4-(3-methylphenylthio)phenyl]pyrazolo[1,5-a]-1,3,5-triazine] |
| < 5e-06 |  | CCc1cccc(NS(=O)(=O)c2ccc(-c3cnn4c(O)ncnc34)cc2)c1 [Example 90, 8-[4-(3-ethylphenylaminosulfonyl)phenyl]-4-hydroxypyrazolo[1,5-a]-1,3,5-triazine] |
| < 5e-06 |  | CC(C)c1ccc(NS(=O)(=O)c2ccc(-c3cnn4c(O)ncnc34)cc2)cc1 [Example 92, 4-Hydroxy-8-[4-(4-isopropylphenylaminosulfonyl)phenyl]pyrazolo[1,5-a]-1,3,5-triazine] |
| < 5e-06 |  | CCc1ccccc1NS(=O)(=O)c1ccc(-c2cnn3c(O)ncnc23)cc1 [Example 91, 8-[4-(2-ethylphenylaminosulfonyl)phenyl]-4-hydroxypoyrazolo[1,5-a]-1,3,5-triazine] |
| 1.5e-07 |  | Cc1cc(-c2cnn3c(O)ncnc23)ccc1Sc1ccccc1 [Example 81, 4-Hydroxy-8-(3-methyl-4-phenylthiophenyl)pyrazolo[1,5-a]-1,3,5-triazine] |
| 1.1e-07 |  | Cc1cc(-c2cnn3c(O)ncnc23)ccc1SCc1ccccc1 [Example 79, 8-(4-Benzylthio-3-methylphenyl)-4-hydroxypyrazolo[1,5-a]-1,3,5-triazine] |
| 2.5e-07 |  | Cc1cc(-c2cnn3c(O)ncnc23)ccc1S(=O)(=O)Nc1ccccc1 [Example 103, 4-Hydroxy-8-(3-methyl-4-phenylaminosulfonylphenyl)pyrazolo[1,5-a]-1,3,5-triazine] |
| 4e-07 |  | Cc1cc(-c2cnn3c(O)ncnc23)ccc1Sc1ccc(Br)cc1 [Example 100, 8-[4-(4-bromophenylthio)-3-methylphenyl]-4-hydroxypyrazolo[1,5-a]-1,3,5-triazine] |
|  | 1.3e-07 | Oc1c(C2CCCCC2)cnc2c(-c3ccc(Sc4ccccc4)cc3)cnn12 [Example 27, 7-Hydroxy-6-cyclohexyl-3-(4-phenylthiophenyl)pyrazolo[1,5-a]pyrimidine] |
|  | 1.8e-07 | CC(C)c1cnc2c(-c3ccc(Sc4ccccc4)cc3)cnn2c1O [Example 26, 7-Hydroxy-6-isopropyl-3-(4-phenylthiophenyl)pyrazolo[1,5-a]pyrimidine] |
|  | 1.2e-06 | Cc1nn2c(O)ccnc2c1-c1ccc(Sc2ccccc2)cc1 [Example 18, 7-Hydroxy-2-methyl-3-(4-phenylthiophenyl)pyrazolo[1,5-a]pyrimidine] |
|  | 5.8e-08 | O=C(O)c1cnc2c(-c3ccc(Sc4ccccc4)cc3)cnn2c1O [Example 38, 7-Hydroxy-6-carboxy-3-(4-phenylthiophenyl)pyrazolo[1,5-a]pyrimidine] |
|  | 1.5e-07 | COc1cc(-c2cnn3c(O)ccnc23)ccc1Sc1ccccc1 [Example 15, 7-Hydroxy-3-(3-methoxy-4-penylthiophenyl)pyrazolo[1,5-a]pyrimidine] |
|  | 1.65e-07 | COc1cnc2c(-c3ccc(Sc4ccccc4)cc3)cnn2c1O [Example 21, 7-Hydroxy-6-methoxy-3-(4-phenylthiophenyl)pyrazolo[1,5-a]pyrimidine] |
|  | > 5e-06 | c1ccc(Sc2ccc(-c3cnn4cccnc34)cc2)cc1 [Example 49, 3-(4-phenylthiophenyl)pyrazolo[1,5-a]pyrimidine] |
|  | 9e-07 | CCc1cc(O)n2ncc(-c3ccc(Sc4ccccc4)cc3)c2n1 [Example 6, 7-Hydroxy-5-ethyl-3-(4-phenylthiophenyl)pyrazolo[1,5-a]pyrimidine] |
|  | 2e-07 | CCOC(=O)c1cnc2c(-c3ccc(Sc4ccccc4)c(OC)c3)cnn2c1O [Example 14, 7-Hydroxy-6-ethoxycarbonyl-3-(3-methoxy-4-phenylthiophenyl)pyrazolo[1,5-a]pyrimidine] |
|  | 3.4e-08 | CC(=O)c1cnc2c(-c3ccc(Sc4ccccc4)cc3)cnn2c1O [Example 67, 7-Hydroxy-6-acetyl-3-(4-phenylthiophenyl)pyrazolo[1,5-a]pyrimidine] |
|  | 4e-07 | O=C(Nc1cc(Cl)c(Cl)c(Cl)c1)c1cnc2c(-c3ccc(Sc4ccccc4)cc3)cnn2c1O [Example 45, 7-Hydroxy-3-(4-phenylthiophenyl)-6-(N-3,4,5-trichlorophenyl)carbamoylpyrazolo[1,5-a]pyrimidine] |
|  | 3e-06 | O=C(Nc1ccccc1)c1cnc2c(-c3ccc(Sc4ccccc4)cc3)cnn2c1O [Example 42, 7-Hydroxy-6-(N-phenylcarbamoyl)-3-(4-phenylthiophenyl)pyrazolo[1,5-a]pyrimidine] |
|  | 2.2e-08 | O=C(O)Cc1cnc2c(-c3ccc(Sc4ccccc4)cc3)cnn2c1O [Example 40, 7-Hydroxy-6-carboxymethyl-3-(4-phenylthiophenyl)pyrazolo[1,5-a]pyrimidine] |
|  | 3e-07 | COc1ccccc1-c1cnc2c(-c3ccc(Sc4ccccc4)cc3)cnn2c1O [Example 53, 7-Hydroxy-6-(2-methoxyphenyl)-3-(4-phenylthiophenyl)pyrazolo[1,5-a]pyrimidine] |
|  | 1.6e-07 | Oc1ccc(-c2cnc3c(-c4ccc(Sc5ccccc5)cc4)cnn3c2O)cc1 [Example 66, 7-Hydroxy-6-(4-hydroxyphenyl)-3-(4-phenylthiophenyl)pyrazolo[1,5-a]pyrimidine] |
|  | 7.7e-08 | COc1cc(-c2cnn3c(O)c(C(N)=O)cnc23)ccc1Sc1ccccc1 [Example 44, 6-Carbamoyl-7-hydroxy-3-(3-methoxy-4-phenylthiophenyl)pyrazolo[1,5-a]pyrimidine] |
|  | 1.6e-07 | Oc1ccccc1Cc1cnc2c(-c3ccc(Sc4ccccc4)cc3)cnn2c1O [Example 61, 7-Hydroxy-6-(2-hydroxyphenylmethyl)-3-(4-phenylthiophenyl)pyrazolo[1,5-a]pyrimidine] |
|  | 7.4e-07 | Oc1ccccc1-c1cnc2c(-c3ccc(Sc4ccccc4)cc3)cnn2c1O [Example 64, 7-Hydroxy-6-(2-hydroxyphenyl)-3-(4-phenylthiophenyl)pyrazolo[1,5-a]pyrimidine] |
|  | 5.8e-07 | Cc1nc2c(-c3ccc(Sc4ccccc4)cc3)cnn2c(O)c1Cl [Example 37, 7-hydroxy-6-chloro-5-methyl-3-(4-phenylthiophenyl)pyrazolo[1,5-a]pyrimidine] |

| Compound | IC50 [1] [M] | IC50 [2] [M] |
| --- | --- | --- |
| CC(=O)OCCc1cnc2c(-c3ccc(Sc4ccccc4)cc3)cnn2c1O [Example 59, 6-(2-Acetoxyethyl)-7-hydroxy-3-(4-phenylthiophenyl)pyrazolo[1,5-a]pyrimidine] |  | 1.65e-07 |
| 7-Hydroxy-6-ethoxycarbonylmethyl-3-(4-phenylthiophenyl)pyrazolo[1,5-a]pyrimidine [Example 34] |  | 2.9e-07 |
